Laboratory results from patent publication US10865216B2, “Tricyclic Gyrase inhibitors” (MERCK SHARP & DOHME CORP., priority 2012, dated 2020).
In brackets after ≈: the same amount, converted by molar mass.

Experiments:
[1] = system: E. coli ATCC 25922; assay: MIC, E. coli ATCC 25922; format: cell-based; conditions: Alamar Blue read after overnight incubation at 35° C.; for MIC: Escherichia coli, ATCC25922, E. coli, read-out: MIC Ec; for MIC Ec: E. coli
[2] = system: S. aureus ATCC 13709; assay: MIC, S. aureus ATCC 13709; format: cell-based; conditions: Alamar Blue read after overnight incubation at 35° C.; for MIC: Staphylococcus aureus, ATCC13709, S. aureus, read-out: MIC Sa; for MIC Sa: S. aureus

Row | Structure (SMILES) | MIC [1] | MIC [2] | MIC Ec [1] | MIC Sa [2]
1 | CNc1cccc2c1[nH]c1nc(Sc3cnc4cccnc4c3)nc(N3CC(N)C4(CC4)C3)c12 (stereo not shown) [Compound 1.27] | 1 µg/mL (≈ 2.13 µM) | ≤ 0.5 µg/mL | – | –
2 | CNc1cccc2c1[nH]c1nc(Sc3cnc4cccnc4c3)nc(N3CC4CCCNC4C3)c12 (stereo not shown) [Compound 1.28] | 16 µg/mL (≈ 33.2 µM) | 4 µg/mL (≈ 8.29 µM) | – | –
3 | CNc1cccc2c1[nH]c1nc(Sc3cnc4cccnc4c3)nc(N3CC(N)C3)c12 [Compound 1.29] | > 64 µg/mL | 1 µg/mL (≈ 2.33 µM) | – | –
4 | CNc1cccc2c1[nH]c1nc(Sc3cnc4cccnc4c3)nc(N3CC4C(C3)C4(N)CO)c12 (stereo not shown) [Compound 1.30] | > 64 µg/mL | 16 µg/mL (≈ 33 µM) | – | –
5 | CNc1cccc2c1[nH]c1nc(Sc3cc4ncccc4[n+]([O-])c3)nc(N3C[C@@H]4[C@@H](N)[C@@H]4C3)c12 [Compound 1.31] | ≤ 0.5 µg/mL | ≤ 0.5 µg/mL | – | –
6 | CNc1cccc2c1[nH]c1nc(Sc3cnc4ccc[n+]([O-])c4c3)nc(N3CC4CNC4C3)c12 (stereo not shown) [Compound 1.32] | 4 µg/mL (≈ 8.5 µM) | ≤ 0.5 µg/mL | – | –
7 | CNc1cccc2c1[nH]c1nc(Sc3cnc4ccc[n+]([O-])c4c3)nc(N3CC(C4(N)CC4)C3)c12 [Compound 1.33] | 4 µg/mL (≈ 8.25 µM) | ≤ 0.5 µg/mL | – | –
8 | CNc1cccc2c1[nH]c1nc(Sc3cnc4ccc[n+]([O-])c4c3)nc(N3CCC[C@@H](N)C3)c12 [Compound 1.34] | 4 µg/mL (≈ 8.46 µM) | 1 µg/mL (≈ 2.12 µM) | – | –
9 | CNc1cccc2c1[nH]c1nc(Sc3cnc4ccc[n+]([O-])c4c3)nc(N3CC[C@@H](C)[C@@H](N)C3)c12 [Compound 1.35] | 2 µg/mL (≈ 4.11 µM) | ≤ 0.5 µg/mL | – | –
10 | CNc1cccc2c1[nH]c1nc(Sc3cncc(S(=O)(=O)NC)c3)nc(N3CC4C(N)C4C3)c12 (stereo not shown) [Compound 1.36] | 4 µg/mL (≈ 8.05 µM) | 2 µg/mL (≈ 4.03 µM) | – | –
11 | CNc1cccc2c1[nH]c1nc(Sc3cnc4cccnc4c3)nc(N3CCC[C@@H](N)C3)c12 [Compound 1.37] | 4 µg/mL (≈ 8.76 µM) | 1 µg/mL (≈ 2.19 µM) | – | –
12 | CNc1cccc2c1[nH]c1nc(Sc3cnc4ccc[n+]([O-])c4c3)nc(N3CCC4(CC4N)C3)c12 (stereo not shown) [Compound 1.38] | 2 µg/mL (≈ 4.13 µM) | ≤ 0.5 µg/mL | – | –
13 | CNc1cccc2c1[nH]c1nc(Sc3cnc4ccc[n+]([O-])c4c3)nc(N3CCC4(CC4N)C3)c12 (stereo not shown) [Compound 1.39] | – | – | 1 µg/mL (≈ 2.06 µM) | ≤0.5 µg/mL
14 | CNc1cccc2c1[nH]c1nc(Sc3cnc4ccc[n+]([O-])c4c3)nc(N3CC(N)C4(CC4)C3)c12 (stereo not shown) [Compound 1.40] | 1 µg/mL (≈ 2.06 µM) | ≤ 0.5 µg/mL | – | –
15 | CNc1cccc2c1[nH]c1nc(Sc3cncc(S(N)(=O)=O)c3)nc(N3CC4C(N)C4C3)c12 (stereo not shown) [Compound 1.41] | 8 µg/mL (≈ 16.6 µM) | 4 µg/mL (≈ 8.29 µM) | – | –
16 | CNc1cccc2c1[nH]c1nc(Sc3cncc(S(=O)(=O)NCCO)c3)nc(N3CC4C(N)C4C3)c12 (stereo not shown) [Compound 1.42] | 32 µg/mL (≈ 60.8 µM) | 8 µg/mL (≈ 15.2 µM) | – | –
17 | CNc1cccc2c1[nH]c1nc(Sc3cncnc3)nc(N3CC4C(N)C4C3)c12 (stereo not shown) [Compound 1.43] | 8 µg/mL (≈ 19.8 µM) | 2 µg/mL (≈ 4.94 µM) | – | –
18 | CNc1cccc2c1[nH]c1nc(Sc3cncnc3)nc(N3CC(N)C4(CC4)C3)c12 (stereo not shown) [Compound 1.44] | 2 µg/mL (≈ 4.78 µM) | 1 µg/mL (≈ 2.39 µM) | – | –
19 | CNc1cccc2c1[nH]c1nc(Sc3cnc4cccnc4c3)nc(N3CCCCC(N)C3)c12 (stereo not shown) [Compound 1.45] | 4 µg/mL (≈ 8.5 µM) | 1 µg/mL (≈ 2.12 µM) | – | –
20 | CNc1cccc2c1[nH]c1nc(Sc3cnc4cccnc4c3)nc(N3CCNCC3)c12 [Compound 1.46] | 4 µg/mL (≈ 9.04 µM) | 2 µg/mL (≈ 4.52 µM) | – | –
21 | CNc1cccc2c1[nH]c1nc(Sc3cnc4cccnc4c3)nc(N3CC4CNC(C4)C3)c12 (stereo not shown) [Compound 1.47] | 2 µg/mL (≈ 4.27 µM) | ≤ 0.5 µg/mL | – | –
22 | CNc1cccc2c1[nH]c1nc(Sc3cnc4cccnc4c3)nc(N3CCC(CN)C3)c12 (stereo not shown) [Compound 1.48] | 2 µg/mL (≈ 4.38 µM) | ≤ 0.5 µg/mL | – | –

Row | Structure (SMILES) | MIC [1] | MIC [2] | MIC Ec [1] | MIC Sa [2]
23 | CNc1cccc2c1[nH]c1nc(Sc3cnc4ccc[n+]([O-])c4c3)nc(N3CC4C(N)C4C3)c12 (stereo not shown) [Compound 1.49] | – | – | ≤0.5 µg/mL | ≤0.5 µg/mL
24 | CNc1cc(F)cc2c1[nH]c1nc(Sc3cnc4ccc[n+]([O-])c4c3)nc(N3CC4C(N)C4C3)c12 (stereo not shown) [Compound 1.50] | ≤ 0.5 µg/mL | ≤ 0.5 µg/mL | – | –
25 | CNc1cc(F)cc2c1[nH]c1nc(Sc3cnc4cccnc4c3)nc(N3CC4C(N)C4C3)c12 (stereo not shown) [Compound 1.51] | ≤ 0.5 µg/mL | ≤ 0.5 µg/mL | – | –
26 | CNc1cccc2c1[nH]c1nc(Sc3cnc4ccc[n+]([O-])c4c3)nc(N3CC4C(C3)C4NC(=O)[C@H](C)N)c12 (stereo partly shown) [Compound 1.52] | 16 µg/mL (≈ 29.5 µM) | 1 µg/mL (≈ 1.85 µM) | – | –
27 | CNc1cccc2c1[nH]c1nc(Sc3cnc4cccnc4c3)nc(N3CCC(CO)C3)c12 (stereo not shown) [Compound 1.53] | 8 µg/mL (≈ 17.5 µM) | ≤ 0.5 µg/mL | – | –
28 | CNc1cccc2c1[nH]c1nc(Sc3cnc4cccnc4c3)nc(N3CCN(c4cnccn4)CC3)c12 [Compound 1.54] | > 64 µg/mL | ≤ 0.5 µg/mL | – | –
29 | CNc1cccc2c1[nH]c1nc(Sc3cnc4cccnc4c3)nc(N3CC4CNCC4C3)c12 (stereo not shown) [Compound 1.55] | 8 µg/mL (≈ 17.1 µM) | 1 µg/mL (≈ 2.13 µM) | – | –
30 | CNc1cccc2c1[nH]c1nc(Sc3cnc4cccnc4c3)nc(N3CCC4(CCNCC4)C3)c12 [Compound 1.56] | 32 µg/mL (≈ 64.4 µM) | 4 µg/mL (≈ 8.05 µM) | – | –
31 | CNc1cccc2c1[nH]c1nc(Sc3cnc4ccc[n+]([O-])c4c3)nc(N3CC4CC3CN4)c12 (stereo not shown) [Compound 1.57] | > 32 µg/mL | > 32 µg/mL | – | –
32 | CNc1ccc(C)c2c1[nH]c1nc(Sc3cnc4cccnc4c3)nc(N3CC4C(N)C4C3)c12 (stereo not shown) [Compound 1.58] | 8 µg/mL (≈ 17.1 µM) | ≤ 0.5 µg/mL | – | –
33 | CNc1cccc2c1[nH]c1nc(Sc3cnc4cccnc4c3)nc(N3CCC(C)(N)C3)c12 (stereo not shown) [Compound 1.59] | 4 µg/mL (≈ 8.76 µM) | 1 µg/mL (≈ 2.19 µM) | – | –
34 | CNc1cccc2c1[nH]c1nc(Sc3cnc4cccnc4c3)nc(N3C[C@@H](N)C[C@H]3C)c12 [Compound 1.60] | 2 µg/mL (≈ 4.38 µM) | 0.5 µg/mL (≈ 1.1 µM) | – | –
35 | CNc1cccc2c1[nH]c1nc(Sc3cnc4cccnc4c3)nc(N3C[C@H](N)C[C@H]3C)c12 [Compound 1.61] | 64 µg/mL (≈ 140 µM) | 8 µg/mL (≈ 17.5 µM) | – | –
36 | CNc1cc(F)cc2c1[nH]c1nc(Sc3cnc4cccnc4c3)nc(N3CC(N)C4(CC4)C3)c12 (stereo not shown) [Compound 1.62] | ≤ 0.5 µg/mL | ≤ 0.5 µg/mL | – | –
37 | CNc1cc(F)cc2c1[nH]c1nc(Sc3cnc4ccc[n+]([O-])c4c3)nc(N3CC(N)C4(CC4)C3)c12 (stereo not shown) [Compound 1.63] | ≤ 0.5 µg/mL | ≤ 0.5 µg/mL | – | –
38 | CNc1cc(F)cc2c1[nH]c1nc(Sc3cnc4ccc[n+]([O-])c4c3)nc(N3CCC4(CC4N)C3)c12 (stereo not shown) [Compound 1.64] | ≤ 0.5 µg/mL | ≤ 0.5 µg/mL | – | –
39 | CNc1cc(F)cc2c1[nH]c1nc(Sc3cnc4ccc[n+]([O-])c4c3)nc(N3CCC4(CC4N)C3)c12 (stereo not shown) [Compound 1.65] | – | – | ≤0.5 µg/mL | ≤0.5 µg/mL
40 | CNc1cccc2c1[nH]c1nc(Sc3cnc4ccc[n+]([O-])c4c3)nc(N3CC4C(N)C4C3)c12 (stereo not shown) [Compound 1.66] | – | – | ≤0.5 µg/mL | ≤0.13 µg/mL
41 | CNc1cccc2c1[nH]c1nc(Sc3cnc4cccnc4c3)nc(N3CCN(C(C)=O)CC3)c12 [Compound 1.67] | > 64 µg/mL | ≤ 0.5 µg/mL | – | –
42 | CNc1cccc2c1[nH]c1nc(Sc3cnc4cccnc4c3)nc(N3C[C@H](N)C[C@@H]3CO)c12 [Compound 1.68] | 32 µg/mL (≈ 67.7 µM) | 16 µg/mL (≈ 33.9 µM) | – | –
43 | CNc1cccc2c1[nH]c1nc(Sc3cnc4cccnc4c3)nc(N3CCN(C(=O)C4CCCO4)CC3)c12 (stereo not shown) [Compound 1.69] | 8 µg/mL (≈ 14.8 µM) | ≤ 0.5 µg/mL | – | –
44 | CNc1cccc2c1[nH]c1nc(Sc3cnc4cccnc4c3)nc(N3CCC(C(O)c4cccs4)CC3)c12 (stereo not shown) [Compound 1.70] | > 32 µg/mL | 1 µg/mL (≈ 1.81 µM) | – | –
